Read-outs that look alike come from different tables or passages of the source.
Columns and labels:
[1] = test system: DND-41 (acute lymphoblastic leukemia); assay: Cytostatic activity (cell proliferation); format: cell-based
Protocol: (§1) The 50% cytostatic inhibitory concentration (IC50) causing a 50% decrease in cell proliferation was determined for all obtained compounds toward 9 cancerous cell lines, i.e.,: Capan-1 (pancreatic adenocarcinoma), Hap1 (chronic myeloid leukemia), HCT-116 (colorectal carcinoma), NCI-H460 (lung carcinoma), DND-41 (acute lymphoblastic leukemia), HL-60 (acute myeloid leukemia), K-562 (chronic myeloid leukemia), MM.1S (multiple myeloma), Z-138 non-Hodgkin lymphoma), as well as normal retina (non-cancerous) cells (hTERT RPE-1). Docetaxel, etoposide and stauroporine were used as the reference compounds.
(§2) All assays were performed in 96-well microtiter plates. To each well was added (5–7.5) × 10^4 tumor cells and a given amount of the tested compound. The cells were allowed to proliferate at 37 °C in a humidified, CO2-controlled atmosphere. At the end of the incubation period, the cells were counted in a Coulter counter. The IC50 (50% inhibitory concentration) was defined as the concentration of the compound that inhibited cell proliferation by 50%.

[2] = test system: NCI-H460 (lung carcinoma); assay: Cytostatic activity (cell proliferation); format: cell-based
Protocol: as §1, §2

[3] = test system: HCT-116 (colorectal carcinoma); assay: Cytostatic activity (cell proliferation); format: cell-based
Protocol: as §1, §2

[4] = test system: hTERT RPE-1 normal retina (non-cancerous) cells; assay: Cytostatic activity (cell proliferation); format: cell-based
Protocol: as §1, §2

[5] = test system: Hap1 (chronic myeloid leukemia); assay: Cytostatic activity (cell proliferation); format: cell-based
Protocol: as §1, §2

[6] = test system: Capan-1 (pancreatic adenocarcinoma); assay: Cytostatic activity (cell proliferation); format: cell-based
Protocol: as §1, with “RPE-1).” for “RPE-1). Docetaxel, etoposide and stauroporine were used as the reference compounds.”
as §2, with “counter.” for “counter. The IC50 (50% inhibitory concentration) was defined as the concentration of the compound that inhibited cell proliferation by 50%.”

S. aureus ATCC 25923 = assay: Oxacillin MIC reduction (adjuvant) microdilution assay; format: cell-based, Staphylococcus aureus; details: for Activity Gain [A]: MIC(OXA)/MIC(OXA+Cpd), compound 0.5 mM, adjuvant activity if A ≥ 4
Protocol: (§3) Since the lack of direct antibacterial activity of the obtained azetidinones was observed, all isomers trans and cis were investigated on their “adjuvant” properties, i.e., an ability to enhance the effectiveness of antibiotics against S. aureus strains. Thus, the compounds were tested in combination with the known β-lactam antibiotic, oxacillin, in the microdilution assays. The ability of the tested azetidinones to reduce minimum inhibitory concentration (MIC) of oxacillin against both, the referenced and the resistant S. aureus strains, was assessed.
(§4) The in-vitro antibacterial property and the capacity of tested compounds to increase the efficacy of antibiotics were evaluated in two Staphylococcus aureus strains, i.e., the reference clonal complex 5 (CC5) methicillin-susceptible (MSSA) strain ATCC 25923, and the methicillin-resistant (MRSA) extensively drug-resistant (XDR) clinical isolate HEMSA-5 [46].
(§5) In order to assess the increase of antibiotic efficacy, the assays were conducted by determining if/to what extent the investigated compounds reduce MICs of oxacillin by means of a serial dilution broth microplate method, in accordance with the CLSI requirements. The concentrations of compounds used in the MICs reduction assay were no greater than 1/4 of their respective MICs to ensure that cell viability was not affected by the intrinsic antibacterial activity of the molecules. Serial two-fold dilutions of oxacillin (Sigma-Aldrich; St. Louis, MI, USA, cat. no. 28221), were prepared in […] of the Mueller–Hinton broth (Merck; Darmstadt, Germany, cat. no. 1102930500). Suitable concentrations of the compounds (total volume […]) were then added. Bacterial suspensions were diluted to OD ¼ 0.5. The resulting suspensions were then diluted 1:100 and added in the volume of […] into the oxacillin serial dilutions with the compounds. The results were read after 20-h incubation at 37 °C.
(§6) The ability of compounds to improve antibiotic efficacy was expressed as the activity gain [A] parameter calculated according to the formula given in Figure 10.
(§7) Figure 10 Activity gain. MICAnt corresponds to the MIC of oxacillin in the absence of a compound tested and MICAnt + Comp refers to the MIC of oxacillin paired with a compound tested.

MRSA HEMSA 5 = assay: as above; format: cell-based, Staphylococcus aureus; details: for Activity Gain [A]: MIC(OXA)/MIC(OXA+Cpd), compound 0.5 mM, adjuvant activity if A ≥ 4
Protocol: as §3, §4, §5, §6, §7

[7] = oxacillin MIC in presence of 0.5 mM compound

Row | Compound | IC50 [1] [µM] | IC50 [2] [µM] | IC50 [3] [µM] | IC50 [4] [µM] | IC50 [5] [µM] | IC50 [6] [µM] | Activity Gain [A] (S. aureus ATCC 25923) | OXA+ Cpd MIC (S. aureus ATCC 25923; [7]) [µg/mL] | Activity Gain [A] (MRSA HEMSA 5) | OXA+ Cpd MIC (MRSA HEMSA 5; [7]) [µg/mL] | IC50 ([1]; DND41) [µM] | IC50 ([2]; Homo sapiens, NCI-H460) [µM] | IC50 ([3]; Homo sapiens, HCT-116) [µM] | IC50 ([4]; hTERT-RPE1) [µM] | IC50 ([5]; Homo sapiens, HAP1) [µM] | IC50 ([6]; Homo sapiens, CAPAN-1) [µM]
1 | CCOP(=O)(OCC)[C@@H]1[C@H](c2ccccc2)C(=O)N1C (relative stereo) [cis-10a, cis-N-methyl-3-phenyl-4-(diethoxyphosphoryl)azetidin-2-one] | > 100 | > 100 | > 100 | > 100 | 46.3 | 37.8 | 0.5 | 1 | 1–2 | 256 to 512 |  |  |  |  |  | 
2 | CCOP(=O)(OCC)[C@@H]1[C@H](c2ccccc2F)C(=O)N1C (relative stereo) [cis-10b, cis-N-methyl-3-(2-fluorophenyl)-4-(diethoxyphosphoryl)azetidin-2-one] |  |  |  |  |  |  | 0.5 |  | 1 |  | > 100 | 45.2 | > 100 | > 100 | 14.5 | 31.9
3 | CCOP(=O)(OCC)[C@@H]1[C@H](c2ccc(F)cc2)C(=O)N1C (relative stereo) [cis-10d, cis-N-methyl-3-(4-fluorophenyl)-4-(diethoxyphosphoryl)azetidin-2-one] |  |  |  |  |  |  | 0.5 |  | 1 |  | > 100 | 71 | 86.5 | > 100 | 70.3 | > 100
4 | CCOP(=O)(OCC)[C@@H]1[C@H](c2ccc(F)cc2F)C(=O)N1C (relative stereo) [cis-10e, cis-N-methyl-3-(2,4-difluorophenyl)-4-(diethoxyphosphoryl)azetidin-2-one] |  |  |  |  |  |  | 1 |  | 1 |  | > 100 | 92.6 | > 100 | > 100 | > 100 | 56.8
5 | CCOP(=O)(OCC)[C@@H]1[C@H](c2ccc(F)c(C)c2)C(=O)N1C (relative stereo) [cis-10f, cis-N-methyl-3-(4-fluoro-3-methylphenyl)-4-(diethoxyphosphoryl)azetidin-2-one] |  |  |  |  |  |  | 0.5 |  | 1–2 |  | > 100 | 87 | > 100 | > 100 | 97.9 | 61.4
6 | CCOP(=O)(OCC)[C@@H]1[C@H](c2ccccc2)C(=O)N1Cc1ccccc1 (relative stereo) [cis-11a, cis-N-benzyl-3-phenyl-4-(diethoxyphosphoryl)azetidin-2-one] |  |  |  |  |  |  | 0.5 |  | 1–2 |  | > 100 | 78.8 | 87.9 | > 100 | > 100 | 95.2
7 | CCOP(=O)(OCC)[C@@H]1[C@H](c2ccccc2F)C(=O)N1Cc1ccccc1 (relative stereo) [cis-11b, cis-N-benzyl-3-(2-fluorophenyl)-4-(diethoxyphosphoryl)azetidin-2-one] |  |  |  |  |  |  | 1 |  | 1 |  | > 100 | 72.8 | 74.1 | > 100 | > 100 | 53
8 | CCOP(=O)(OCC)[C@@H]1[C@H](c2ccc(F)cc2)C(=O)N1Cc1ccccc1 (relative stereo) [cis-11d, cis-N-benzyl-3-(4-fluorophenyl)-4-(diethoxyphosphoryl)azetidin-2-one] |  |  |  |  |  |  | 1 |  | 1 |  | > 100 | 45.9 | 54.1 | > 100 | 61.9 | 35.9

— PMC8348901, “Novel N-Substituted 3-Aryl-4-(diethoxyphosphoryl)azetidin-2-ones as Antibiotic Enhancers and Antiviral Agents in Search for a Successful Treatment of Complex Infections” (International Journal of Molecular Sciences, 2021)
